Source: paper PMC12042115 (mLife, 2025)
Read-outs that look alike come from different tables or passages of the source.

Tested on: wild‐type BCG cells
Format: cell-based, M. bovis BCG
Details: for Mean_Ratio GDI5755_3d: DMSO_3d: Table S6; for Mean Ratio: GDI5755_2d vs DMSO_2d; for Mean Ratio / Mean Ratio (GDI5755_2d vs DMSO_2d): up-regulated; for Mean_Ratio (GDI5755_3d vs DMSO_3d): down-regulated, 3 d; for Mean Ratio (GDI5755_2d vs DMSO_2d): 2d

## O=C(Oc1ccc(Cl)cc1)c1ccc(N2CCOCC2)c([N+](=O)[O-])c1 [GDI‐5755]
BCG_1101c Serine protease
  Mean_Ratio GDI5755_3d: DMSO_3d: 1.4
BCG_1189c HNH nuclease domain-containing protein
  Mean_Ratio GDI5755_3d: DMSO_3d: 1.3
BCG_1283 Probable serine protease htrA
  Mean_Ratio GDI5755_3d: DMSO_3d: 1.3
BCG_1324 Uncharacterized protein
  Mean_Ratio GDI5755_3d: DMSO_3d: 1.3
BCG_1333 Lipoprotein lprB
  Mean_Ratio GDI5755_3d: DMSO_3d: 1.3
BCG_1334 Lipoprotein lprC
  Mean_Ratio GDI5755_3d: DMSO_3d: 1.3
BCG_1438c Transferase
  Mean_Ratio GDI5755_3d: DMSO_3d: 1.3
BCG_1471c Probable triacylglyceride transporter
  Mean_Ratio GDI5755_3d: DMSO_3d: 1.3
BCG_1492 Conserved membrane protein
  Mean_Ratio GDI5755_3d: DMSO_3d: 1.3
BCG_1523 Fe-S cluster assembly protein SufD
  Mean_Ratio GDI5755_3d: DMSO_3d: 1.3
BCG_1532 Thioredoxin
  Mean_Ratio GDI5755_3d: DMSO_3d: 1.3
BCG_1543 UPF0353 protein
  Mean_Ratio GDI5755_3d: DMSO_3d: 1.3
BCG_1787 DUF4129 domain-containing protein
  Mean_Ratio GDI5755_3d: DMSO_3d: 1.4
BCG_1890c NADH dehydrogenase ndh
  Mean_Ratio GDI5755_3d: DMSO_3d: 1.5
BCG_1937 Thiamine-binding protein-containing protein
  Mean_Ratio GDI5755_3d: DMSO_3d: 1.3
BCG_1984 HNH nuclease domain-containing protein
  Mean_Ratio GDI5755_3d: DMSO_3d: 1.3
BCG_2183c Transcriptional regulator MraZ
  Mean_Ratio GDI5755_3d: DMSO_3d: 1.3
BCG_2241c Serine protease Hip1
  Mean_Ratio GDI5755_3d: DMSO_3d: 1.3
BCG_2351c Probable lipoprotein lppP
  Mean_Ratio GDI5755_3d: DMSO_3d: 1.3
BCG_2486c DSBA-like thioredoxin domain-containing protein
  Mean_Ratio GDI5755_3d: DMSO_3d: 1.7
BCG_2516c pyruvate dehydrogenase E1 component pdhB
  Mean_Ratio GDI5755_3d: DMSO_3d: 1.3
BCG_2656 Uncharacterized protein
  Mean_Ratio GDI5755_3d: DMSO_3d: 1.4
BCG_2721c DUF3039 domain-containing protein
  Mean_Ratio GDI5755_3d: DMSO_3d: 1.4
BCG_2723 RNA polymerase sigma factor, sigB
  Mean_Ratio GDI5755_3d: DMSO_3d: 1.3
BCG_2934c Possible D-amino acid aminohydrolase
  Mean_Ratio GDI5755_3d: DMSO_3d: 1.4
BCG_3028 conserved lipoprotein lppZ
  Mean_Ratio GDI5755_3d: DMSO_3d: 1.3
BCG_3153c Diacylglycerol O-acyltransferase
  Mean_Ratio GDI5755_3d: DMSO_3d: 1.4
BCG_3164 Probable NADPH quinone oxidoreductase fadB4
  Mean_Ratio GDI5755_3d: DMSO_3d: 1.2
BCG_3165c Uncharacterized protein
  Mean_Ratio GDI5755_3d: DMSO_3d: 1.3
BCG_3185c Dioxygenase
  Mean_Ratio GDI5755_3d: DMSO_3d: 2.2
BCG_3269c Protein translocase subunit SecA 1
  Mean_Ratio GDI5755_3d: DMSO_3d: 1.2
BCG_3476 Probable dioxygenase
  Mean_Ratio GDI5755_3d: DMSO_3d: 1.6
BCG_3583 Acetoacetate decarboxylase
  Mean_Ratio GDI5755_3d: DMSO_3d: 1.3
BCG_3590 Rieske-type oxygenase
  Mean_Ratio GDI5755_3d: DMSO_3d: 1.4
BCG_3674c ATP-dependent zinc metalloprotease FtsH
  Mean_Ratio GDI5755_3d: DMSO_3d: 1.3
BCG_3709 Rv3651-like N-terminal domain-containing protein
  Mean_Ratio GDI5755_3d: DMSO_3d: 1.3
BCG_3824c Two-component transcriptional regulator TcrX
  Mean_Ratio GDI5755_3d: DMSO_3d: 1.4
BCG_3881 Uncharacterized protein
  Mean_Ratio GDI5755_3d: DMSO_3d: 1.4
BCG_3905c Glycerol phosphoryl diester phosphodiesterase glpQ1
  Mean_Ratio GDI5755_3d: DMSO_3d: 1.3
iTRAQ protein abundance ratio, 2 d treatment vs DMSO, sheet down-regulated, Protein_ID A0A0H3M0L9, Pvalue 5.14E-04
  Mean_Ratio (GDI5755_2d vs DMSO_2d), protein L-serine dehydratase: 0.80
iTRAQ protein abundance ratio, 2 d treatment vs DMSO, sheet down-regulated, Protein_ID A0A0H3M5R4, Pvalue 4.43E-04
  Mean_Ratio (GDI5755_2d vs DMSO_2d), protein Endonuclease NucS: 0.80
iTRAQ protein abundance ratio, 2 d treatment vs DMSO, sheet down-regulated, Protein_ID A0A0H3M7Q0, Pvalue 1.60E-03
  Mean_Ratio (GDI5755_2d vs DMSO_2d), protein Trehalose 2-sulfotransferase: 0.80
iTRAQ protein abundance ratio, 2 d treatment vs DMSO, sheet down-regulated, Protein_ID A0A0H3M274, Pvalue 5.23E-03
  Mean_Ratio (GDI5755_2d vs DMSO_2d), protein DUF3263 domain-containing protein: 0.80
iTRAQ protein abundance ratio, 2 d treatment vs DMSO, sheet down-regulated, Protein_ID A0A0H3MDG6, Pvalue 1.81E-05
  Mean_Ratio (GDI5755_2d vs DMSO_2d), protein Translation initiation factor IF-3: 0.80
iTRAQ protein abundance ratio, 2 d treatment vs DMSO, sheet down-regulated, Protein_ID A0A0H3MDQ9, Pvalue 5.91E-05
  Mean_Ratio (GDI5755_2d vs DMSO_2d), protein Possible conserved membrane or exported protein: 0.80
iTRAQ protein abundance ratio, 2 d treatment vs DMSO, sheet down-regulated, Protein_ID A1KGI7, Pvalue 5.54E-04
  Mean_Ratio (GDI5755_2d vs DMSO_2d), protein Large ribosomal subunit protein uL22: 0.80
iTRAQ protein abundance ratio, 2 d treatment vs DMSO, sheet down-regulated, Protein_ID A1KLF3, Pvalue 2.57E-03
  Mean_Ratio (GDI5755_2d vs DMSO_2d), protein ATP-dependent Clp protease ATP-binding subunit ClpX: 0.80
Protein A0A0G2Q9F2 Ribonuclease P protein component
  Mean Ratio: 1.26
Protein A0A0G2Q9J9, BCG_3329c (Rv3300c), Pseudouridine synthase RsuA/RluA-like domain-containing protein
  Mean_Ratio (GDI5755_3d vs DMSO_3d): 0.7
Protein A0A0G2Q9N9, BCG_0021 (Rv3915), N-acetylmuramoyl-L-alanine amidase CwlM
  Mean_Ratio (GDI5755_3d vs DMSO_3d): 0.7
Protein A0A0H3M0K6 Probable conserved transmembrane protein
  Mean Ratio: 1.32
Protein A0A0H3M0R3 Secreted antigen 85-c fbpC (85C)
  Mean Ratio: 1.28
Protein A0A0H3M1A8 Isoniazid inductible gene protein iniC
  Mean Ratio (GDI5755_2d vs DMSO_2d): 1.34
Protein A0A0H3M1E3, BCG_0162 (Rv0128), Probable conserved transmembrane protein
  Mean_Ratio (GDI5755_3d vs DMSO_3d): 0.7
Protein A0A0H3M1F5 DUF427 domain-containing protein
  Mean Ratio (GDI5755_2d vs DMSO_2d): 1.39
Protein A0A0H3M1G0 Possible conserved lipoprotein lpqK
  Mean Ratio: 1.28
Protein A0A0H3M1I3, BCG_0204 (Rv0167), Conserved hypothetical integral membrane protein yrbE1A
  Mean_Ratio (GDI5755_3d vs DMSO_3d): 0.7
Protein A0A0H3M1V2, BCG_0591c (Rv0547c), Possible oxidoreductase
  Mean_Ratio (GDI5755_3d vs DMSO_3d): 0.757
Protein A0A0H3M1X4 Probable dehydrogenase/reductase
  Mean Ratio: 1.28
Protein A0A0H3M1Z8 Isoniazid inductible gene protein iniA
  Mean Ratio: 1.28
Protein A0A0H3M2A5 Carboxymuconolactone decarboxylase-like domain-containing protein
  Mean Ratio: 1.25
Protein A0A0H3M2D4 Possible conserved transmembrane protein
  Mean Ratio: 1.26
Protein A0A0H3M2J1, BCG_0913c (Rv0861c), DNA helicase
  Mean_Ratio (GDI5755_3d vs DMSO_3d): 0.746
Protein A0A0H3M2K9, BCG_0627 (Rv0582), Ribonuclease VapC
  Mean_Ratio (GDI5755_3d vs DMSO_3d): 0.74
Protein A0A0H3M2L9, BCG_0933 (Rv0881), Possible rRNA methyltransferase
  Mean_Ratio (GDI5755_3d vs DMSO_3d): 0.7
Protein A0A0H3M2M6, BCG_0648c (Rv0602c), Two component DNA binding/Transcriptional regulatory protein tcrA
  Mean_Ratio (GDI5755_3d vs DMSO_3d): 0.7
